Experimental data reported in paper PMC9583330, “Quinazoline-4(3H)-one-7-carboxamide Derivatives as Human Soluble Epoxide Hydrolase Inhibitors with Developable 5-Lipoxygenase Activating Protein Inhibition” (ACS Omega, 2022).
Values joined by “and” are separate entries in the source; they are usually repeats but may differ in a detail not shown here. Identical values can stand only once.

How the values were obtained:
[1] = test system: FLAP-mediated cellular LT formation in human neutrophils; experiment: FLAP-dependent 5-LO product formation in intact neutrophils; type: cell-based; settings: Neutrophil; for IC50: Homo sapiens, intact neutrophils challenged with 2.5 μM ionophore plus 20 μM arachidonic acid; for activity at 10 µM: 10 μM inhibitor, read-out: 5-LO product formation in neutrophils, remaining activity (% of control) at 10 μM; for activity at 10 µM / activity at 1 µM: human neutrophils, 2.5 μM Ca2+-ionophore A23187, means ± SEM, n = 4–5; for activity at 1 µM: 1 μM inhibitor, read-out: 5-LO product formation in neutrophils, remaining activity (% of control) at 1 μM
Description: Neutrophils were isolated from leukocyte concentrates obtained from freshly withdrawn peripheral blood of healthy adult male and female donors which were provided by the Institute of Transfusion Medicine, University Hospital Jena, Germany. The experimental protocol was approved by the ethical committee of the University Hospital Jena, and all methods were performed in accordance with the relevant guidelines and regulations. The leukocyte concentrates were mixed with dextran (from Leuconostoc spp. MW ∼40,000, Sigma Aldrich) for sedimentation of erythrocytes, and the supernatant was centrifuged on lymphocyte separation medium (Histopaque-1077, Sigma Aldrich). Contaminating erythrocytes in the pelleted neutrophils were removed by hypotonic lysis using distilled water. The neutrophils were washed twice in ice-cold PBS pH 7.4 and finally resuspended in PBS pH 7.4 plus 1 mg/mL glucose (PGC buffer).
Human neutrophils [5 × 10^6; in PGC buffer; incubation volume, 1 mL] were preincubated with 0.1% DMSO (vehicle) or with the compounds at 37 °C for 15 min. […] Samples were then subjected to solid-phase extraction on C18-columns (100 mg, UCT, Bristol, PA), and 5-LO products (LTB4 and its trans-isomers, and 5-H(p)ETE) were extracted and analyzed in the presence of internal standard PGB1 by RP-HPLC and UV detection as reported elsewhere.[45]

Human recombinant sEH = biological target: T1, Human recombinant sEH (Homo sapiens, UniProt P34913); experiment: sEH cell-free fluorescence-based assay (PHOME substrate); type: biochemical; settings: means ± SEM, n = 3; for IC50: cell-free assay, human sEH; for remaining activity at 10 µM: residual activity at 10 μM, control = vehicle 100%
T1 construct: made in house; host or cells: Sf9 insect cells, recombinant baculovirus from Dr. B. Hammock
T1 sequence (P34913 1-555): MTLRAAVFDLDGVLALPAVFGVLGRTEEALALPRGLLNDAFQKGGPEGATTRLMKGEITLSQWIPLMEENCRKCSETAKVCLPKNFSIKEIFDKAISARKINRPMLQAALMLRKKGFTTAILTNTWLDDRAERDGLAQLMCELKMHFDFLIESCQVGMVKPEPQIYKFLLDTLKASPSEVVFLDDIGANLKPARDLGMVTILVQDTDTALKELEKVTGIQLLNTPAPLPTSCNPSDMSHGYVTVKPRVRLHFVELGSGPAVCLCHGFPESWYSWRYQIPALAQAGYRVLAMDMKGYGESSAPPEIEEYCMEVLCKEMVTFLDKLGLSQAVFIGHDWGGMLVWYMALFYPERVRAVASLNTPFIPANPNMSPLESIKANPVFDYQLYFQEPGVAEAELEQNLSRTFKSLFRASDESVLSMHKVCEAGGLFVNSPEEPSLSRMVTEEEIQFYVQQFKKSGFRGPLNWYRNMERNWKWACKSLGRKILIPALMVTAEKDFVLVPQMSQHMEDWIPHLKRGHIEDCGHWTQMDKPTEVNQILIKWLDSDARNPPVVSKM
Description: Human recombinant sEH was expressed and purified as reported before.[46] In brief, Sf9 cells were infected with a recombinant baculovirus (kindly provided by Dr. B. Hammock, University of California, Davis, CA). Seventy-two hours post-transfection, cells were pelleted and sonicated (3 × 10 s at 4 °C) in lysis buffer containing NaHPO4 (50 mM, pH 8), NaCl (300 mM), glycerol (10%), EDTA (1 mM), phenylmethanesulfonyl fluoride (1 mM), leupeptin (10 μg/mL), and a soybean trypsin inhibitor (60 μg/mL). Supernatants after centrifugation at 100,000 × g (60 min, 4 °C) were subjected to benzylthio-sepharose-affinity chromatography in order to purify sEH by elution with 4-fluorochalcone oxide in PBS containing 1 mM DTT and 1 mM EDTA. Dialyzed and concentrated (Millipore Amicon-Ultra-15 centrifugal filter) enzyme solution was assayed for total protein with a Bio-Rad protein detection kit (Bio-Rad Laboratories, Munich, Germany), and the epoxide hydrolase activity was determined by using a fluorescence-based assay as described before.[47] Shortly, sEH was diluted in Tris buffer (25 mM, pH 7) supplemented with BSA (0.1 mg/mL) to an appropriate enzyme concentration and preincubated with test compounds or vehicle (0.1% DMSO) for 10 min at room temperature (RT). The reaction was started by the addition of 50 μM 3-phenyl-cyano(6-methoxy-2-naphthalenyl)methyl ester-2-oxiraneacetic acid (PHOME), a nonfluorescent compound that is enzymatically converted into fluorescent 6-methoxy-naphtaldehyde at RT. After 60 min, reactions were stopped by ZnSO4 (200 mM) and fluorescence was detected (λem 465 nm, λex 330 nm) using a NOVOstar microplate reader (BMG Labtech GmbH, Ortenberg, Germany), and potential fluorescence of test compounds was subtracted from the read-out, if required.

Row | Structure (SMILES) | IC50 [1] [µM] | activity at 10 µM [1] [%] | melting point | IC50 (Human recombinant sEH) | remaining activity at 10 µM (Human recombinant sEH) [%] | activity at 1 µM [1] [%]
1 | O=C(O)c1ccc2c(=O)n(-c3ccccc3)c(SCc3ccccc3Cl)nc2c1 [Compound 10, 2-((2-Chlorobenzyl)thio)-4-oxo-3-phenyl-3,4-dihydroquinazoline-7-carboxylic Acid] | 2.1 ± 0.4 | 1.3 ± 0.3 | 277.8 to 279.8 °C |  |  | 
2 | CC(C)CNC(=O)c1ccc2c(=O)n(-c3ccccc3)c(SCc3ccccc3Cl)nc2c1 [Compound 12, N-Isobutyl-4-oxo-3-phenyl-2-((2-chlorobenzyl)thio)-3,4-dihydroquinazoline-7-carboxamide] |  |  | 230.8 to 232.7 °C | 7.4 ± 2.8 µM |  | 
3 | CC(C)NC(=O)c1ccc2c(=O)n(-c3ccccc3)c(SCc3ccc(C(F)(F)F)cc3)nc2c1 [Compound 13, N-Isopropyl-4-oxo-3-phenyl-2-((4-(trifluoromethyl)benzyl)thio)-3,4-dihydroquinazoline-7-carboxamide] |  |  | 212.5 to 213.3 °C | ~10 µM | 58.3 | 
4 | CC(C)CNC(=O)c1ccc2c(=O)n(-c3ccccc3)c(SCc3ccc(C(F)(F)F)cc3)nc2c1 [Compound 14, N-Isobutyl-4-oxo-3-phenyl-2-((4-(trifluoromethyl)benzyl)thio)-3,4-dihydroquinazoline-7-carboxamide] |  |  | 214.7 to 216.6 °C | 4.5 ± 0.7 µM |  | 
5 | COC(=O)c1cccc(CSc2nc3cc(C(=O)NCC(C)(C)C)ccc3c(=O)[nH]2)c1 [Compound 20, Methyl 3-(((7-(neopentylcarbamoyl)-4-oxo-3,4-dihydroquinazolin-2-yl)thio)methyl)benzoate] |  |  | 269.6 to 271.4 °C | > 10 µM | 94.3 | 
6 | CC(C)(C)CNC(=O)c1ccc2c(=O)[nH]c(SCc3cccc(C(=O)O)c3)nc2c1 [Compound 21, 3-(((7-(Neopentylcarbamoyl)-4-oxo-3,4-dihydroquinazolin-2-yl)thio)methyl)benzoic Acid] |  |  | 250.6 to 252.6 °C | ~10 µM | 51.9 | 
7 | O=C(O)c1ccc2c(=O)[nH]c(SCc3ccccc3Cl)nc2c1 [Compound 22] | ~10 | 50.3 ± 15.5 | 280 °C (dec.) |  |  | 102 ± 5.4
8 | CC(C)(C)CNC(=O)c1ccc2c(=O)[nH]c(SCc3ccccc3Cl)nc2c1 [Compound 34, 2-((2-Chlorobenzyl)thio)-N-neopentyl-4-oxo-3,4-dihydroquinazoline-7-carboxamide] | 2.91 | 4.5 ± 1.2 | 238.4 to 239.8 °C | 0.66 µM and 0.7 µM |  | 84.5 ± 4.5
9 | CC(C)(C)CNC(=O)c1ccc2c(=O)[nH]c(SCc3cccc(Cl)c3)nc2c1 [Compound 35, 2-((3-Chlorobenzyl)thio)-N-neopentyl-4-oxo-3,4-dihydroquinazoline-7-carboxamide] | > 10 | 62.1 ± 12.2 | 217.1 to 218.4 °C | 0.3 ± 0.05 µM |  | 93.5 ± 11.4
10 | CC(C)(C)CNC(=O)c1ccc2c(=O)[nH]c(SCc3ccc(Cl)cc3)nc2c1 [Compound 36, 2-((4-Chlorobenzyl)thio)-N-neopentyl-4-oxo-3,4-dihydroquinazoline-7-carboxamide] | < 10 | 29.7 ± 7.2 | 220 to 222 °C | 1.1 ± 0.1 µM |  | 89.5 ± 8.9
11 | CC(C)(C)CNC(=O)c1ccc2c(=O)[nH]c(SCc3ccccc3C(F)(F)F)nc2c1 [Compound 37, 2-((2-(Trifluoromethyl)benzyl)thio)-N-Neopentyl-4-oxo-3,4-dihydroquinazoline-7-carboxamide] | < 10 | 20.9 ± 12.1 | 217.9 to 219.3 °C | 0.5 ± 0.05 µM |  | 97.6 ± 4
12 | CC(C)(C)CNC(=O)c1ccc2c(=O)[nH]c(SCc3ccccc3F)nc2c1 [Compound 39, 2-((2-Fluorobenzyl)thio)-N-neopentyl-4-oxo-3,4-dihydroquinazoline-7-carboxamide] |  |  | 210.3 to 212.2 °C | 1.3 ± 0.1 µM |  | 
13 | CC(C)(C)CNC(=O)c1ccc2c(=O)[nH]c(SCc3ccccc3C#N)nc2c1 [Compound 40, 2-((2-Cyanobenzyl)thio)-N-neopentyl-4-oxo-3,4-dihydroquinazoline-7-carboxamide] |  |  | 190.3 to 192.2 °C | 2.4 ± 0.3 µM |  | 
14 | Cc1ccccc1CSc1nc2cc(C(=O)NCC(C)(C)C)ccc2c(=O)[nH]1 [Compound 41, 2-((2-Methylbenzyl)thio)-N-neopentyl-4-oxo-3,4-dihydroquinazoline-7-carboxamide] |  |  | 207.4 to 209.4 °C | 1.2 ± 0.1 µM |  | 
15 | COc1ccccc1CSc1nc2cc(C(=O)NCC(C)(C)C)ccc2c(=O)[nH]1 [Compound 42, 2-((2-Methoxybenzyl)thio)-N-neopentyl-4-oxo-3,4-dihydroquinazoline-7-carboxamide] |  |  | 230.2 to 232.1 °C | 3.9 ± 2 µM |  | 
16 | CC(C)(C)CNC(=O)c1ccc2c(=O)[nH]c(SCc3ccccc3OC(F)(F)F)nc2c1 [Compound 43, 2-((2-(Trifluoromethoxy)benzyl)thio)-N-neopentyl-4-oxo-3,4-dihydroquinazoline-7-carboxamide] |  |  | 220.9 to 221.9 °C | 0.4 ± 0.1 µM |  | 
17 | Cc1ncccc1CSc1nc2cc(C(=O)NCC(C)(C)C)ccc2c(=O)[nH]1 [Compound 44, 2-(((2-Methylpyridin-3-yl)methyl)thio)-N-neopentyl-4-oxo-3,4-dihydroquinazoline-7-carboxamide] |  |  | 202.3 to 203.8 °C | 11 µM and 11.2 µM |  | 
18 | CC(C)CNC(=O)c1ccc2c(=O)[nH]c(SCc3ccc(C(F)(F)F)cc3)nc2c1 [Compound 46, 2-((4-(Trifluoromethyl)benzyl)thio)-N-isobutyl-4-oxo-3,4-dihydroquinazoline-7-carboxamide] |  |  | 262.8 to 264.6 °C | 1.5 ± 0.2 µM |  | 
19 | O=C(c1ccc2c(=O)[nH]c(SCc3ccccc3Cl)nc2c1)N1CCNCC1 [Compound 48, 2-((2-Chlorobenzyl)thio)-7-(piperazine-1-carbonyl)quinazolin-4(3H)-one] |  |  | 159.9 to 162 °C | > 10 µM | 105 | 
20 | O=C(c1ccc2c(=O)[nH]c(SCc3ccccc3Cl)nc2c1)N1CCCCC1 [Compound 49] |  |  | 175.6 to 177.2 °C | > 10 µM | 58.5 | 
21 | O=C(c1ccc2c(=O)[nH]c(SCc3ccccc3Cl)nc2c1)N1CCOCC1 [Compound 50, 2-((2-Chlorobenzyl)thio)-7-(morpholine-4-carbonyl)quinazolin-4(3H)-one] |  |  | 198.6 to 200.4 °C | > 10 µM | 77.7 | 
